Key:
Settings in all cases: octanol/water
[1] = Partition coefficient (logP) (dodecane)
[2] = Partition coefficient (logP)
[3] = Partition coefficient across water-dodecane interface by statistical simulation

Row | Compound | logP [1] | logP [2] | logP [3]
1 | Oc1ccccc1 [PHENOL] | -1.04 | 1.5 | –
2 | CC(=O)c1ccc(S(C)(=O)=O)cc1 | -1.56 | 0.33 | –
3 | CC(=O)Nc1ccccc1 [ACETANILIDE] | -1.76 | 1.13 | –
4 | OC[C@H]1O[C@H](O)[C@H](O)[C@@H](O)[C@@H]1O | < -3 | -3.02 | –
5 | O=[N+]([O-])c1ccccc1 [NITROBENZENE] | 1.43 | 1.84 | –
6 | CN1C(=O)Cc2ccccc21 | -0.9 | 0.63 | –
7 | c1ccc2nc3ccccc3cc2c1 [ACRIDINE] | 2.32 | 2.98 | –
8 | Cc1cc(=O)n(-c2ccccc2)n1C [ANTIPYRINE] | -2.52 | – | -2.5
9 | c1ccc2nccnc2c1 [QUINOXALINE] | 0.51 | 1.35 | –
10 | Brc1cnc2ccccc2c1 | 2.59 | 3.11 | –
11 | NC(=O)c1ccccc1 [BENZAMIDE] | -2.67 | 0.67 | –
12 | Oc1cccc(Cl)c1 | -0.34 | – | –

Further lines, with some results ahead:

Row | logP [1] | logP [2] | Compound | logP [3]
13 | -1.95 | 1.07 | O=C1Cc2ccccc2N1 [OXINDOLE] | –
14 | -0.77 | – | OCc1ccccc1 [BENZYL ALCOHOL] | –
15 | 2.06 | – | COc1ccccc1 [ANISOLE] | –
16 | -2.72 | 0.32 | NC(=O)c1ccccc1N [ANTHRANILAMIDE] | –
17 | 0.94 | 1.56 | CC(=O)c1ccccc1 [ACETOPHENONE] | –
18 | -3.14 | 0.33 | NS(=O)(=O)c1ccccc1 [BENZENESULFONAMIDE] | –

— ChEMBL document CHEMBL1135392, “Rational determination of transfer free energies of small drugs across the water-oil interface” (J Med Chem, 2002)
